Test results: US20080045514A1 (Cytovia, Inc., priority 2006, published 2008)
Structures can show the parent of a compound that is named as a salt. Where two headings read alike, the source gives them in different places.

What was measured:
Assay type in all cases: cell-based
[1] = test system: human breast cancer cell line T-47D; experiment: Caspase cascade activation (EC50), T-47D; settings: T47D cells, caspase cascade activation, read-out: caspase potency (EC50) T47D
Summary of the method: (§1)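 Test compound (0.016–10 μM final) is incubated with cells for 48 h at 37 °C. Caspase-3-like activity is measured by 3 h room-temperature cleavage of DEVD-R110 in PIPES pH 7.2 lysis buffer, with EC50 from sigmoidal fitting of background-corrected RFU relative to control.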

[2] = test system: human hepatocellular carcinoma cell line SNU398; experiment: Caspase cascade activation (EC50), SNU398; settings: SNU398 cells, caspase cascade activation, read-out: caspase potency (EC50) SNU398
Summary of the method: as §1

[3] = test system: human colon carcinoma cell line HCT116; experiment: Caspase cascade activation (EC50), HCT116; settings: HCT116 cells, caspase cascade activation, read-out: caspase potency (EC50) HCT116
Summary of the method: as §1

[4] = test system: human Burkitt's lymphoma cell line Namalwa; experiment: Caspase cascade activation (EC50), Namalwa; settings: Namalwa cells, caspase cascade activation, read-out: caspase potency (EC50) Namalwa
Summary of the method: as §1

[5] = test system: human lymphoma cell line Raji; experiment: Caspase cascade activation (EC50), Raji; settings: RAJI cells, read-out: caspase potency (EC50) RAJI
Summary of the method: as §1

[6] = test system: human B cell lymphoblastoid cell line Ramos; experiment: Caspase cascade activation (EC50), Ramos; settings: RAMOS cells, read-out: caspase potency (EC50) RAMOS
Summary of the method: as §1

[7] = test system: human colon carcinoma cell line HCT116; experiment: Inhibition of cell proliferation (GI50), HCT116; settings: HCT 116 cells, 48 h, CellTiter-Glo
Protocol: (§2) Human breast cancer cell lines T-47D, human hepatocellular carcinoma cell line SNU398, human colon carcinoma cell line HCT116, human lung cancer cell line H1299, human leukemia cell line K562, human lymphoma cell line Raji, human B cell lymphoblastoid cell line Ramos, and human Burkitt's lymphoma cell line Namalwa were grown and harvested as in Example 100. An aliquot of […] of cells (4.4×10^4 cells/mL) was added to a well of a 96-well microtiter plate containing 5 μL of a 10% DMSO in RPMI-1640 media solution containing 10 nM to 100 μM of 3-(2-chlorophenyl)-6-(3,4-methylenedioxyphenyl)-7H-[1,2,4]triazolo[3,4-b][1,3,4]thiadiazine (1 nM to 10 μM final). An aliquot of 45 μL of cells was added to a well of a 96-well microtiter plate containing 5 μL of a 10% DMSO in RPMI-1640 media solution without compound as the control sample for maximal cell proliferation (LMax). The samples were mixed by agitation and then incubated at 37° C. for 48 h in a 5% CO2-95% humidity incubator. After incubation, the samples were removed from the incubator and 25 μL of CellTiter-Glo™ reagent (Promega) was added. The samples were mixed by agitation and incubated at room temperature for 10-15 min. Plates were then read using a luminescent plate reader (Model SPECTRAfluor Plus, Tecan) to give Ltest values.
(§3) The samples were mixed by agitation and then incubated at 37° C. for 0.5 h in a 5% CO2-95% humidity incubator. After incubation, the samples were removed from the incubator and 25 μL of CellTiter-Glo™ reagent (Promega) was added. The samples were mixed by agitation and incubated at […] 10-15 min at room temperature in a 5% CO2-95% humidity incubator. Fluorescence was read as above, (LStart) defining luminescence for initial cell number used as baseline in GI50 determinations.
(§4) Calculation: GI50 (dose for 50% inhibition of cell proliferation) is the concentration where [(Ltest−LStart)/(LMax−LStart)]=0.5.

[8] = test system: human leukemia cell line K562; experiment: Inhibition of cell proliferation (GI50), K562; settings: K562 cells, 48 h, CellTiter-Glo
Protocol: as §2, §3, §4

[9] = test system: human lymphoma cell line Raji; experiment: Inhibition of cell proliferation (GI50), Raji; settings: Raji cells, 48 h, CellTiter-Glo
Protocol: as §2, §3, §4

[10] = test system: human B cell lymphoblastoid cell line Ramos; experiment: Inhibition of cell proliferation (GI50), Ramos; settings: Ramos cells, 48 h, CellTiter-Glo
Protocol: as §2, §3, §4

[11] = test system: human Burkitt's lymphoma cell line Namalwa; experiment: Inhibition of cell proliferation (GI50), Namalwa; settings: Namalwa cells, 48 h, CellTiter-Glo
Protocol: as §2, §3, §4

[12] = Homo sapiens, Burkitts lymphoma cell

SMILES | EC50 ([1]; Homo sapiens) [nM] | EC50 ([2]; Homo sapiens, SNU-398) [nM] | EC50 ([3]; Homo sapiens, HCT-116) [nM] | EC50 [4, 12] [nM] | EC50 ([5]; Homo sapiens) [nM] | EC50 ([6]; Homo sapiens) [nM] | GI50 ([7]; Homo sapiens) [nM] | GI50 ([8]; Homo sapiens) [nM] | GI50 ([9]; Homo sapiens) [nM] | GI50 ([10]; Homo sapiens) [nM] | GI50 [11, 12] [nM] | also measured
COc1ccc(-c2nnc3n2N=C(c2ccc(C)cc2)CS3)c(OC)c1 [Example 15, 3-(2,4-Dimethoxyphenyl)-6-(4-methylphenyl)-7H-[1,2,4]triazolo[3,4-b][1,3,4]thiadiazine hydrobromide] | 34 | 5 | 8 | 7 | 12 | 8 | 10 | 4 | 4 | 1 | 6 | 
CCN(CC)c1ccc(C2=Nn3c(nnc3-c3ccccc3OC)SC2)cc1 [Example 23, 6-(4-Diethylaminophenyl)-3-(2-methoxyphenyl)-7H-[1,2,4]triazolo[3,4-b][1,3,4]thiadiazine] | 32 | 18 | 26 | 15 | 27 | 27 | 13 | 2 | 2 | 3 | 7 | 
COc1ccccc1-c1nnc2n1N=C(c1ccc(N3CCCC3)cc1)CS2 [Example 24, 3-(2-Methoxyphenyl)-6-(4-(pyrrolidin-1-yl)phenyl)-7H-[1,2,4]triazolo[3,4-b][1,3,4]thiadiazine] | 91 | 41 | 62 | 35 | 107 | 62 | 41 | 17 | 15 | 16 | 64 | 
COc1ccccc1-c1nnc2n1N=C(c1ccc(N3CCOCC3)cc1)CS2 [Example 25, 3-(2-Methoxyphenyl)-6-(4-morpholinophenyl)-7H-[1,2,4]triazolo[3,4-b][1,3,4]thiadiazine] | 612 | 694 | 1260 | 321 | 511 | 275 | 1980 | 317 | 285 | 105 | 161 | 
CCN(CC)c1ccc(C2=Nn3c(nnc3-c3cc(OC)cc(OC)c3)SC2)cc1 [Example 26, 6-(4-Diethylaminophenyl)-3-(3,5-dimethoxyphenyl)-7H-[1,2,4]triazolo[3,4-b][1,3,4]thiadiazine] | 297 | 114 | 280 | 106 | 154 | 73 | 20 | 20 | 17 | 20 | 16 | 
CCN(CC)c1ccc(C2=Nn3c(nnc3-c3ccc(OC)cc3OC)SC2)cc1 [Example 27, 6-(4-Diethylaminophenyl)-3-(2,4-dimethoxyphenyl)-7H-[1,2,4]triazolo[3,4-b][1,3,4]thiadiazine] | 44 | 47 | 55 | 31 | 46 | 55 | 23 | 10 | 3 | 1 | 2 | 
COc1ccc(-c2nnc3n2N=C(c2ccc(N(C)C)cc2)CS3)cc1OC [Example 30, 6-(4-Dimethylminophenyl)-3-(3,4-dimethoxyphenyl)-7H-[1,2,4]triazolo[3,4-b][1,3,4]thiadiazine] |  |  |  |  |  |  |  |  |  |  |  | EC50 [1]: 360 nM; EC50 [2]: 119 nM; EC50 [3]: 221 nM; EC50 [4]: 55 nM; EC50 [5]: 64 nM; EC50 [6]: 57 nM; GI50 [7]: 126 nM; GI50 [8]: 50 nM; GI50 [9]: 157 nM; GI50 [10]: 100 nM; GI50 [11]: 102 nM
COc1ccc(-c2nnc3n2N=C(c2ccc(N=[N+]=[N-])cc2)CS3)cc1OC [Example 31, 6-(4-Azidophenyl)-3-(3,4-dimethoxyphenyl)-7H-[1,2,4]triazolo[3,4-b][1,3,4]thiadiazine] | 2390 | 619 | 5550 | 544 | 534 | 520 | 4250 | 581 | 6330 | 503 | 1470 | 

Now from value to molecule, other results behind:

EC50 ([1]; Homo sapiens) [nM] | EC50 ([2]; Homo sapiens, SNU-398) [nM] | EC50 ([3]; Homo sapiens, HCT-116) [nM] | EC50 [4, 12] [nM] | EC50 ([5]; Homo sapiens) [nM] | EC50 ([6]; Homo sapiens) [nM] | GI50 ([7]; Homo sapiens) [nM] | GI50 ([8]; Homo sapiens) [nM] | GI50 ([9]; Homo sapiens) [nM] | GI50 ([10]; Homo sapiens) [nM] | GI50 [11, 12] [nM] | SMILES | also measured
1080 | 243 | 314 | 104 | 268 | 125 | 361 | 41 | 103 | 17 | 79 | CCOc1ccc(C2=Nn3c(nnc3-c3ccccc3Br)SC2)cc1 [Example A3] | 
1710 | 126 | 424 | 132 | 247 | 152 | 852 | 63 | 130 | 100 | 112 | COc1ccc(C2=Nn3c(nnc3-c3cccc(F)c3)SC2)cc1 [Example C3] | 
332 | 61 | 143 | 54 | 115 | 76 | 100 | 44 | 85 | 49 | 33 | COc1ccc(C2=Nn3c(nnc3-c3ccccc3Br)SC2)cc1 [Example D3] | 
244 | 85 | 157 | 48 | 125 | 77 | 200 | 33 | 66 | 21 | 47 | COc1ccc(C2=Nn3c(nnc3-c3ccc(Br)cc3)SC2)cc1 [Example E3] | 
905 | 329 | 612 | 629 | 523 | 379 | 376 | 96 | 176 | 119 | 400 | COc1ccc(C2=Nn3c(nnc3-c3cccc(Br)c3)SC2)cc1 [Example I2, 3-(3-Bromophenyl)-6-(4-methoxyphenyl)-7H-[1,2,4]triazolo[3,4-b][1,3,4]thiadiazine] | 
553 | 55 | 122 | 76 | 85 | 60 | 142 | 34 | 247 | 20 | 68 | COc1ccc(C2=Nn3c(nnc3-c3ccccc3F)SC2)cc1 [Example L2, 3-(2-Fluorophenyl)-6-(4-methoxyphenyl)-7H-[1,2,4]triazolo[3,4-b][1,3,4]thiadiazine] | 
191 | 31 | 34 | 41 | 53 | 29 | 171 | 38 | 164 | 13 | 34 | COc1ccc(C2=Nn3c(nnc3-c3ccccc3C)SC2)cc1 [Example N2, 3-(2-Methylphenyl)-6-(4-methoxyphenyl)-7H-[1,2,4]triazolo[3,4-b][1,3,4]thiadiazine] | 
